# Experiment: RP-HPTLC retention (RM0, lipophilicity parameter) on RP-18W/UV254 plates
# Type: physicochemical
# Procedure: Precoated RP-18W/UV254 plates (Macherey-Nagel GmbH and Co., Düren, Germany) were used for RP HPTLC analysis. Investigated solvent mixtures used as mobile phases: acetone-water (φ = 0.5 - 0.8; v/v), acetonitrile-water (φ = 0.5 - 0.9; v/v), methanol-water (φ = 0.65 - 0.95; v/v), 2-propanol-water (φ = 0.4 - 0.7; v/v), tetrahydrofuran-water (φ = 0.5 - 0.75; v/v).
# The investigated compounds were dissolved in an appropriate solvent, methanol, 1 mg mL^-1) and the solutions (0.2 μL) were separately spotted into the plates. All the reagents used were of analytical purity. The plates were developed by the ascending technique at room temperature without previous saturation of the chamber with mobile phase. All measurements were carried out at ambient temperature. After drying of the plates, the spots were visualized under UV light at λ = 254 nm. RF values were calculated as average from three measurements for each solute-mobile phase combination. For subsequent calculations mean RM values were used; these were calculated by using the formula:
# Equation (1) RM=log(1/RF-1)
# The calculated RM values for different concentrations of organic solvent were used to check the linearity of their relationship with the volume fraction of organic modifier according to the equation ([23]):
# Where φ is the volume fraction of organic solvent in the mobile phase, RM^0 is the intercept obtained by extrapolation to φ = 0% of modifier, and S is the slope of the linear plot. Equations (1) and (2) served for deriving data for further QSAR studies.
# [1] = RP-18W/UV254, 2-propanol – water (φ = 0.4 - 0.7)
# [2] = RP-18W/UV254, acetone – water (φ = 0.5 - 0.8)
# [3] = RP-18W/UV254, acetonitrile – water (φ = 0.5 - 0.9)
# [4] = RP-18W/UV254, methanol – water (φ = 0.65 - 0.95)
# [5] = RP-18W/UV254, tetrahydrofuran - water (φ = 0.5 - 0.75)
SMILES,"RM^0 (retention parameter, intercept at φ = 0% modifier) [1]","RM^0 (retention parameter, intercept at φ = 0% modifier) [2]","RM^0 (retention parameter, intercept at φ = 0% modifier) [3]","RM^0 (retention parameter, intercept at φ = 0% modifier) [4]","RM^0 (retention parameter, intercept at φ = 0% modifier) [5]"
CC(Nc1nc(Cl)nc(NC(C)c2ccccc2)n1)c1ccccc1 (centres unmarked) [I.1],1.900,3.185,2.110,2.457,3.439
Cc1ccc(C(C)Nc2nc(Cl)nc(NC(C)c3ccc(C)cc3)n2)cc1 (centres unmarked) [I.2],2.525,3.580,2.786,3.188,3.567
CC(Nc1nc(Cl)nc(NC(C)c2ccc(Cl)cc2)n1)c1ccc(Cl)cc1 (centres unmarked) [I.3],2.617,3.839,2.887,3.976,3.538
CC(Nc1nc(Cl)nc(NC(C)c2ccc(Br)cc2)n1)c1ccc(Br)cc1 (centres unmarked) [I.4],2.764,4.303,2.896,4.407,3.351
CC1(Nc2nc(Cl)nc(NC3(C)CCCC3)n2)CCCC1 [II.1],2.183,3.743,2.388,3.181,3.289
CC1(Nc2nc(Cl)nc(NC3(C)CCCCC3)n2)CCCCC1 [II.2],2.384,3.935,2.753,3.320,3.401
CC1(Nc2nc(Cl)nc(NC3(C)CCCCCC3)n2)CCCCCC1 [II.3],3.013,4.218,3.000,4.530,4.071
Clc1nc(NC2CCCCC2)nc(NC2CCCCC2)n1 [III.1],2.251,4.118,2.356,3.440,3.426

# Other lines, results leading:
"RM^0 (retention parameter, intercept at φ = 0% modifier) [1]","RM^0 (retention parameter, intercept at φ = 0% modifier) [2]","RM^0 (retention parameter, intercept at φ = 0% modifier) [3]","RM^0 (retention parameter, intercept at φ = 0% modifier) [4]","RM^0 (retention parameter, intercept at φ = 0% modifier) [5]",SMILES
2.769,4.626,3.284,3.998,3.611,CN(c1nc(Cl)nc(N(C)C2CCCCC2)n1)C1CCCCC1 [III.2]
2.691,4.019,3.101,3.980,3.387,Clc1nc(NC2CCCCC2)nc(N(c2ccccc2)C2CCCCC2)n1 [III.3]
2.747,4.693,3.556,5.295,3.902,Clc1nc(N(c2ccccc2)C2CCCCC2)nc(N(c2ccccc2)C2CCCCC2)n1 [III.4]
1.118,1.672,1.497,1.526,1.733,CC1(Nc2nc(Cl)nc(Cl)n2)CCCC1 [IV.1]
1.779,2.257,1.956,1.756,2.222,CC1(Nc2nc(Cl)nc(Cl)n2)CCCCCC1 [IV.3]

# Reference: article PMC4232785, “RP-HPTLC Retention Data in Correlation with the In-silico ADME Properties of a Series of s-triazine Derivatives” (Iranian Journal of Pharmaceutical Research : IJPR, 2014)
